Entries after “also recorded” stand apart in the source; their conditions may differ. Where two headings read alike, the source gives them in different places.
Tests used:
[1] = tested on: Pluripotent hepatocytes; experiment: Undifferentiated cell staining of pluripotent hepatocytes; assay type: cell-based
Excerpt: Pluripotent stem cells such as iPS cells, ES cells or tissue-derived stem cells are considered promising for application and development in regenerative medicine, and for example, when a cell population is to be formed from iPS cells, differentiated into tissue cells that are destined to be transplanted, it is currently the case that iPS cell-derived differentiation-induced tissue cell populations partially contain undifferentiated cells that have not completely differentiated to the desired tissue cells, cells that have differentiated to cells other than the desired tissue cells, and the original iPS cells that have undergone essentially no differentiation. It has been pointed out that when such undifferentiated cells or original iPS cells are transplanted as is into the body, they can potentially become cancerated in the future. Thus, when an iPS cell-derived differentiation-induced tissue cell population is to be used for transplantation, undifferentiated cells or original iPS cells remaining in the transplanted cell population are preferably identified and confirmed, and also eliminated.

[2] = tested on: epithelial cells/adenocytes and connective tissue/capillaries; experiment: Preferential staining of epithelial cells/adenocytes or connective tissue/capillaries; assay type: in vivo, mouse; conditions: 5 mg/ml for curcumin, 1 mg/ml for all other dyes
Experimental: A metal ring (outer diameter: 16 millimeters, inner diameter, 6 millimeters) was placed on a laboratory stage, and a rapid bonding adhesive (AronAlpha) was coated over the entire periphery of the ring surface on one side. Forceps were used to hold the rapid bonding adhesive-coated metal ring with the adhesive-coated surface facing downward, and it was set on the pronase-treated mucosal surface. During a period of about 5 minutes, the metal ring became anchored to the mucosa with the rapid bonding adhesive, and the region where the dye compound was to be applied was rinsed with PBS.
In order to avoid drying of the mucosal surface, a curcumin stock solution or sulfuretin stock solution diluted with physiological saline (PBS) (see Tables 1 to 3 for the dilution factors) was added dropwise onto the pronase-treated mucosal surface, and after allowing it to stand for 1 minute, it was rinsed 3 times with PBS, a cover glass was placed over the metal ring, and the objective lens of a multiphoton laser microscope (FV1000 MPE by Olympus Corp.) was brought near to the top of the cover glass for image observation.
The procedure from administration of the dye compound to observation was conducted as described above under “Evaluation of stainability” (same hereunder). Also, the administered concentration of dye to the mucosal surface was 5 mg/ml for curcumin as Dye No. 1, and 1 mg/ml for all of the other dyes.

[3] = tested on: MDCK-GFP-Ras^V12 cells mixed with MDCK normal cells; experiment: In vitro assay of MDCK-Ras^V12 cancerized cell small aggregates as a very early cancer model; assay type: cell-based, canine
Experimental: The MDCK normal cells were cultured in a 10 cm dish, and the MDCK-GFP-Ras^V12 cells were cultured in a 6 cm dish. The culture solution used for the MDCK normal cells was DMEM (containing Phenol Red)+10% FBS+penicillin/streptomycin.
The solution used for the MDCK-GFP-Ras^V12 cells was DMEM (containing Phenol Red)+10% FBS+penicillin/streptomycin+Zeocin (400 μg/ml)+blasticidin (5 μg/ml). […] The seeding was carried out using a DMEM+10% FBS+penicillin/streptomycin culture solution, to 1.0 to 3.0×10^4 cells per well of the 96-well dish. Tetracycline at a concentration of 2 μg/ml was added to the culture solution after 4 days when seeding was to 1.0×10^4 or after 1 day when seeding was to 3.0×10^4, and GFP-Ras^V12 was expressed, forming cancerized cell small aggregates among the MDCK normal cells (NPL 3). After 18 to 36 hours, the cells in each of the wells were rinsed 3 times with 200 μl of PBS, and then the Prestwick Chemical Library compounds and the Ministry of Health, Labour and Welfare-approved food additives, each diluted to 1 μM with a 100 μl volume of PBS, were added to the respective wells and taken up by the cells for 5 minutes at room temperature. They were then rinsed 3 times with 200 μl of PBS, and in certain cases further rinsed once with 100 μl of DMEM without Phenol Red, and observed under a multiphoton laser microscope.

[4] = cited from earlier work
[5] = tested on: cancer lesion site versus normal mucosa of large intestine; experiment: Comparison of staining patterns in normal site and cancer tumor site of large intestine; assay type: in vivo, mouse; conditions: for Staining of cancer lesion sites compared with normal mucosa: Example 1, regardless of pronase treatment of the mucosal surface; for Staining of cancer lesion site compared with normal mucosa: Example 3
Experimental: Drinking water containing 2% (w/v) dextran sodium sulfate (DSS) was given to 8-week-old C57B6 mice (male, approximately 20 g) for 7 days. After intraperitoneal injection of 0.2 ml of 5% chloral hydrate for anesthesia, the mouse abdominal wall was incised vertically to about 1 cm, and the gastrointestinal tract was raised over the abdominal wall to about 1 cm. Blood flow to the gastrointestinal tract was maintained during this time by the blood vessel flowing into the mesenteric attachment site. The gastrointestinal tract was incised vertically to about 1 cm on the opposite side of the mesenteric attachment site, including the tunica muscularis and mucosa. The opposite side of the mesenteric attachment site was incised in order to prevent severance and damage of the blood vessel and minimize bleeding. When the incision site of the gastrointestinal tract was opened vertically, the mucosal surface of the gastrointestinal tract, as the food channel, became visible. When food digestion products were present they were wiped off with tissue paper. In order to more clearly observe the gastrointestinal tract mucosal surface, a 1% pronase solution was dropped onto the mucosal surface and was allowed to stand still for 15 minutes. This pronase treatment removed the mucus from the mucosal surface, rendering the cell structure more easily visible. Next, the pronase was removed from the mucosal surface and rinsed with physiological saline (PBS). A metal ring (outer diameter: 16 millimeters, inner diameter, 6 millimeters) was placed on a laboratory stage, and a rapid bonding adhesive (AronAlpha) was coated over the entire periphery of the surface on one side. Forceps were used to hold the rapid bonding adhesive-coated metal ring with the adhesive-coated surface facing downward, and it was set on the pronase-treated mucosal surface. During a period of about 5 minutes, the metal ring became anchored to the mucosa with the rapid bonding adhesive, and the region where the dye compound was to be applied was rinsed with PBS. […] FIG. 32 is a drawing for illustration of a stainability evaluation step for the aforementioned dye compounds. […] Z stack image). […] Both of the staining photographs of the normal site and cancer tumor site were taken under the same conditions.

[6] = tested on: Large intestine; experiment: Evaluation of dye compound stainability under multiphoton laser microscope, large intestine mucosal surface; assay type: in vivo; conditions: mucosal surface of mouse large intestine; 5 mg/ml for curcumin, 1 mg/ml for other dyes
Experimental: Drinking water containing 2% (w/v) dextran sodium sulfate (DSS) was given to 8-week-old C57B6 mice (male, approximately 20 g) for 7 days. After intraperitoneal injection of 0.2 ml of 5% chloral hydrate for anesthesia, the mouse abdominal wall was incised vertically to about 1 cm, and the gastrointestinal tract was raised over the abdominal wall to about 1 cm. Blood flow to the gastrointestinal tract was maintained during this time by the blood vessel flowing into the mesenteric attachment site. The gastrointestinal tract was incised vertically to about 1 cm on opposite side of the mesenteric attachment site, including the tunica muscularis and mucosa. The opposite side of the mesenteric attachment site was incised in order to prevent severance and damage of the blood vessel and minimize bleeding. When the incision site of the gastrointestinal tract was opened vertically, the mucosal surface of the gastrointestinal tract, as the food channel, became visible. When food digestion products were present they were wiped off with tissue paper.
In order to more clearly observe the gastrointestinal tract mucosal surface, a 1% pronase solution was dropped onto the mucosal surface and was allowed to stand still for 15 minutes. This pronase treatment removed the mucus from the mucosal surface, rendering the cell structure more easily visible. […]

[7] = tested on: mucosal surfaces; experiment: Photon dose necessary to obtain fluorescent images of dye-coated mucosal surfaces; assay type: in vivo, mouse; conditions: mucosal surfaces coated with dye
[8] = tested on: human gastric mucosa (normal site and stomach cancer site); experiment: Staining of surgically excised fresh human gastric mucosa; conditions: laser power of 1%
Excerpt: Similar staining also occurred with surgically excised fresh human gastric mucosa. […] The centers of the circular structures are the exits of the fundic glands. It was thus possible to confirm the characteristic of normal tissue whereby epithelial cells arrange in a circular manner without disparate sizes. […] The blackened elliptical portions in each cell are the nuclei.

[9] = tested on: mouse bladder epithelial cells; experiment: Multiphoton laser microscope imaging of stained bladder epithelial cells; conditions: laser power of 3%
[10] = tested on: mouse tracheal epithelial cells; experiment: Multiphoton laser microscope imaging of stained tracheal epithelial cells; conditions: laser power of 3%
[11] = without pronase treatment, cancer 2 to 4 millimeters in diameter

Row | SMILES | Staining of pluripotent hepatocytes [1] | Cell group preferentially stained (epithelial cells/adenocytes or connective tissue/capillaries) [2] | Cancer cell staining intensity relative to normal cell staining intensity ([3]; FIG. 19) | Staining of GFP-Ras^V12 positive cancerized cells versus MDCK normal cells ([3]; Ministry of Health, Labour and Welfare-approved food additives, 1 mg/ml, excitation 750, 800, 850, 900 nm, red fluorescence) | LD50 ([4]; Mouse, Intra-abdominal) | Staining of cancer lesion sites compared with normal mucosa [5] | Staining of cancer lesion site compared with normal mucosa [5, 11] | Excitation by multiphoton laser and brightness of image [6] | LD50 ([4]; mouse, in vivo, po) | Photon dose necessary to obtain fluorescent images compared to non-staining [7] | Staining of normal gastric mucosa site [8] | Staining of stomach cancer site [8] | Staining of cancer lesion site compared with normal mucosa ([5]; after 15 minutes treatment with 1% pronase MS) | Image quality of stained cells [9] | Image quality of stained cells [10]
1 | O=C([O-])c1c(Cl)c(Cl)c(Cl)c(Cl)c1-c1c2cc(Br)c(=O)c(Br)c-2oc2c(Br)c([O-])c(Br)cc12.[Na+].[Na+] [Red #104, phloxine] | exhibit undifferentiated cell staining | preferentially stained epithelial cells/adenocytes | 6.7 times | labeled GFP-Ras^V12-positive cancerized cell small aggregates more intensely than normal cells; also recorded: All GFP-Ras^V12 positive cells stained with Red #104 | 310 mg/kg | – | – | – | – | – | – | – | – | – | –
2 | O=C1/C(=C/c2ccc(O)c(O)c2)Oc2cc(O)ccc21 [Sulfuretin] | – | intensely stained epithelial cells/adenocytes and faintly stained connective tissue/capillaries | – | – | – | stained cancer lesion sites much more intensely than normal mucosa | stained the cancer lesion site significantly more intensely than the normal mucosa | strongly excited by a multiphoton laser and provided bright images | 300 mg/kg | 4% | – | – | – | – | –
3 | COc1cc(/C=C/C(=O)CC(=O)/C=C/c2ccc(O)c(OC)c2)ccc1O [curcumin] | – | intensely stained epithelial cells/adenocytes and faintly stained connective tissue/capillaries | – | – | – | stained cancer lesion sites much more intensely than normal mucosa | stained the cancer lesion site significantly more intensely than the normal mucosa | strongly excited by a multiphoton laser and provided bright images | – | 3% | the circularly arranged normal epithelial cells are stained | cancer cells are stained | stained the cancer lesion site significantly more intensely than the normal mucosa | an image with sufficient brightness and contrast for diagnosis was obtained | an image with sufficient brightness and contrast for diagnosis was obtained

— US11293870B2, “Vital stain” (Mie University, priority 2013, dated 2022)
